# From patent US20080262068A1, “Method of Tonic Treatment With Oxyphenbutazone Derivatives” (A-Viral ASA, priority 2004, published 2008)
# Where two headings read alike, the source gives them in different places.
# Key:
# [1] = tested on: anti-CD3/anti-CD28 induced GM-CSF production; experiment: anti-CD3/anti-CD28 induced GM-CSF production by PBMC (ELISA); format: cell-based, human; settings: for IC50: 3 days anti-CD3/anti-CD28 stimulation, mean ± SD of at least 3 donors, 0.15-40 μM tested, read-out: IC50 aCD3/aCD28 stimulation (GM-CSF production); for concentration inhibiting GM-CSF production (total inhibition): concentration series up to 40 μM
# Experimental: (§1) The medium used throughout this Example was Iscoves modified Dulbecco's medium (IMDM, Bio Whittaker, Verviers, Belgium) containing 100 U/ml penicillin, […] streptomycin (Gibco, Merelbeke, Belgium), 50 μM 2-mercaptoethanol (Sigma-Aldrich, Steinheim, Germany), 5% heat-inactivated fetal calf serum (FCS, Bodinco, Alkmaar, the Netherlands) and 20 mg/ml human transferrin (Sigma-Aldrich).
# (§2) PBMC (peripheral blood mononuclear cells) were isolated from freshly drawn blood of a healthy donor and separated over a Percoll gradient (d=1.078, Pharmacia Fine Chemicals AB, Uppsala, Sweden). These isolated PBMC were cultured in 200 μl IMDM (2×10^5 cells/ml) at 37° C. in the presence of 5% CO2 in flat bottom plates (Nunc, Roskilde, Denmark). A combination of 1 μg/ml anti-CD3 and anti-CD28 (CLB.T3/4.E res. CLB.CD28/1, CLB, Amsterdam, The Netherlands) was used for T lymphocyte stimulation. For monocyte stimulation 100 pg/ml lipo-oligosaccharide (LOS, kind gift of Dr. J. Poolman, RIVM, Bilthoven, The Netherlands) was used.
# (§3) Cytokine production of T lymphocytes was measured 3 days after anti CD3/anti CD28 stimulation. 1 day after LOS stimulation of the monocytes, cytokine production was measured. At the indicated times, supernatant was harvested and stored at −20° C. until used. IL-1b, IL-6, IL-8, IL-10, IL-12, IL-13, TNFa and IFNg were detected with ELISA kits (PeliKine-compact, CLB, Amsterdam, The Netherlands) according to the protocol. Summarized briefly, mAbs were coated on flat bottom microtitre plates (Nunc, Maxisorb) overnight in 100 μl 0.1 M sodiumbicarbonate at pH 9.6. All incubations were performed in 100 μl at room temperature. Plates were washed 5 times with PBS+0.02% Tween (Mallinckrodt Baker, Deventer, The Netherlands). Samples were incubated together with a biotinylated mAb for 2 hours in High Performance ELISA-buffer (CLB). Plates were washed 5 times with PBS+0.02% Tween and incubated with streptavidin-labeled poly-horseradish peroxidase (CLB) 1:1000 diluted in PBS+2% skimmed milk for 30 minutes. After 5 wash steps the plates were developed with TMB-substrate containing 0.003% H2O2, […] 3,5,3′,5′-tetramethylbenzidine (Merck, Darmstadt, Germany) in 0.11 M sodium acetate, pH 5.5. The reaction was stopped with an equal volume of 2 M H2SO4. The plates were measured in an ELISA-reader at 450 nm, using 540 nm for background measurements. GM-CSF was measured using a protocol similar to that used for the other cytokines. The GM-CSF Abs were a kind gift from Dr. G. Trinchieri (the Wistar Institute, Philadelphia, Pa., USA) In this assay the coating Ab was anti-GM-CSF 9.1 (used at 2 μg/ml), the biotinylated Ab was anti-GM-CSF 16.3 (0.1 μg/ml). rGM-CSF (Sandoz, Basel, Switzerland) and HGF 22.10 (CLB) were used for preparation of a standard curve.
# IC50 values (the concentration of the compound needed to inhibit 50% of the maximum response) were determined by using 2-fold titration curves of the compound. The minimum concentration tested was 0.15 μM and the maximum concentration was 40 μM. […] IL-6 in the culture supernatant was determined after 24 h of LOS stimulation of the PBMC by ELISA. GM-CSF in the culture supernatant was determined after 3 days of anti-CD3/anti-CD28 stimulation of the PBMC by ELISA
# [2] = tested on: LOS induced IL-6 production; experiment: LOS induced IL-6 production by PBMC (ELISA); format: cell-based, human; settings: for IC50: 24 h LOS stimulation, mean ± SD of at least 3 donors, 0.15-40 μM tested
# Experimental: as §1, with “(Sigma-Aldrich). All used compounds are endotoxin free.” for “(Sigma-Aldrich).”
# as §2, §3
# IC50 values (the concentration of the compound needed to inhibit 50% of the maximum response) were determined by using 2-fold titration curves of the compound. The minimum concentration tested was 0.15 μM and the maximum concentration was 40 μM. Results represent the mean ±standard deviation of at least 3 donors. IL-6 in the culture supernatant was determined after 24 h of LOS stimulation of the PBMC by ELISA. GM-CSF in the culture supernatant was determined after 3 days of anti-CD3/anti-CD28 stimulation of the PBMC by ELISA
# [3] = Stability of ring-opened product in aqueous solution; format: physicochemical
# Source text: The product of Example 4 (PHBPQ, N-phenyl-2-hydroxy-2 butyl-1,3-propanal quinoneimine) was examined for stability in aqueous solution, followed by analysis by ^1H NMR spectroscopy.
# [4] = tested on: monokine production by monocytes; experiment: Effect on other monokines produced by stimulated monocytes; format: cell-based, human
# Experimental: as §2
# (§4) Cytokine production of T lymphocytes was measured 3 days after anti CD3/anti CD28 stimulation. 1 day after LOS stimulation of the monocytes, cytokine production was measured. At the indicated times, supernatant was harvested and stored at −20° C. until used. IL-1b, IL-6, IL-8, IL-10, IL-12, IL-13, TNFa and IFNg were detected with ELISA kits (PeliKine-compact, CLB, Amsterdam, The Netherlands) according to the protocol. Summarized briefly, mAbs were coated on flat bottom microtitre plates (Nunc, Maxisorb) overnight in 100 μl 0.1 M sodiumbicarbonate at pH 9.6. […] The plates were measured in an ELISA-reader at 450 nm, using 540 nm for background measurements. GM-CSF was measured using a protocol similar to that used for the other cytokines. […]
# [5] = tested on: Th1 and Th2 specific cytokine production; experiment: Effect on lymphocyte specific cytokines (Th1 and Th2); format: cell-based, human
# Experimental: as §2, §4
# [6] = Human volunteers given 4-OH-OPB orally before LPS infusion: tolerability; format: in vivo; settings: 200 mg orally, 2 hours before LPS 4 ng/kg i.v.
# Experimental: Eight of the volunteers received 4-OH-OPB 200 mg orally as two tablets of 100 mg and eight were given placebo tablets. Placebo tablets were chemically identical with the exception of the presence of 4-OH-OPB. The study drug and placebo were administered 2 hours prior to infusion of […] coli lipopolysaccharide, lot G1, United States Pharmacopeial Convention, Rockville, Md.) was administered as a bolus intravenous injection at a dose of 4 ng/kg body weight. Blood was drawn directly prior to the administration of 4-OH-OPB, directly prior to injection of LPS and 0.5, 1, 1.5, 2, 3, 4, 5, 6, 8, 10 and 23 hours thereafter for plasma levels of 4-OH-OPB and/or metabolites. Blood was collected in heparinized tubes which were centrifuged at 3000 r.p.m. for 10 minutes at 4° C., after which 2 ml plasma was transferred in acid containing tubes. Blood for ex vivo production of cytokines in whole blood and mononuclear cell (MNC) cultures was taken directly prior to the administration of 4-OH-OPB and directly prior to the injection of LPS (t=-2 hrs and t=0 hrs). Heparinized whole blood or MNCs were incubated with medium, LOS or anti-CD3/CD28. […] Concentrations of TNF-α, IL-6, IL-8, IL-10 were determined in EDTA-anticoagulated plasma by Cytometric Bead Array (Human BD Cytometric Bead Array Kit, BD Biosciences Pharmingen, San Jose, Calif.).
# [7] = LOS induced IL-6 production, PBMC
compound,measurement,setting,value
"O=C1N(c2ccccc2)N(c2ccc(O)cc2)C(=O)C1(O)CCS(=O)(=O)c1ccccc1 (stereo not shown) [4-OH-OPS, 4-ethylsuphonphenyl-4-hydroxy-1-phenyl-2-hydroxyphenyl-3,5-pyrazoladinedione]",IC50,[1],30 ± 10 µM
same,concentration inhibiting GM-CSF production (total inhibition),[1]; three days incubation,around 40 μM
same,concentration needed to inhibit IL-6 production compared to 4-OH-OPB,[2]; [7],higher concentration
same,IC50,[2]; PBMC,13 ± 4 µM
"CCCCC1C(=O)N(c2ccccc2)N(c2ccccc2)C1=O [PB, phenbutazone]",IC50,"[1]; Homo sapiens, 72 h",30 ± 10 µM
same,shape of dose-response curve for GM-CSF inhibition,"[1]; three days incubation, up to 40 μM",shallow dose-response curve
same,IC50,"[2]; Homo sapiens, PBMC",> 40 µM
"CCCCC1C(=O)N(c2ccccc2)N(c2ccc(O)cc2)C1=O (stereo not shown) [OPB, oxyphenbutazone]",IC50,"[1]; Homo sapiens, 72 h",25 ± 7 µM
same,concentration inhibiting GM-CSF production (total inhibition),[1]; three days incubation,around 40 μM
same,IC50,"[2]; Homo sapiens, PBMC",13 ± 12 µM
same,concentration needed to inhibit IL-6 production compared to 4-OH-OPB,[2]; [7],higher concentration
"N-phenyl-2-hydroxy-2-butyl-1,3-propanal quinoneimine [PHBPQ]",re-conversion into 4-OH-OPB when the solution was acidified,[3]; acidified solution,not re-converted into 4-OH—OPB
same,half-life,"[3]; aqueous solution, pH 7.4",2 to 2.5 h
same,stability compared with 4-OH-OPB,[3]; pH 7.4,more stable
"CCCCC1(O)C(=O)N(c2ccccc2)N(c2ccc(O)cc2)C1=O (stereo not shown) [4-OH-OPB, 4-Hydroxy-oxyphenbutazone]",IC50,"[1]; Homo sapiens, 72 h",0.8 ± 0.5 µM
same,concentration inhibiting GM-CSF production (total inhibition),[1]; three days incubation,1.25 µM
same,IC50,"[2]; Homo sapiens, PBMC",0.6 ± 0.6 µM
same,cytokine inhibitory activity (IL-6 and GM-CSF production by PBMC in vitro),[2]; IL-6 and GM-CSF production by PBMC in vitro,best inhibitor
same,factor by which the IL-6 inhibiting concentration is lower than that for GM-CSF,[2]; [7],2
same,inhibition of LOS-induced monokines compared with IL-6,"[4]; LOS-induced, monocytes",inhibited identically
same,inhibition of SAC induced monokine production,[4]; SAC (heat killed staphylococcus aureus cells) stimulus,also inhibited
same,inhibition of cytokine production induced by other stimuli,"[5]; PMA/ionomycin, PMA/anti-CD28 or anti-CD2/anti-CD28 antibodies",inhibited at similar concentration
same,effect on production of lymphocyte specific cytokines (Th1 and Th2),[5]; anti-CD3/anti-CD28 stimulation,identical to the inhibition found for GM-CSF
same,adverse events attributable to the compound,[6],No adverse events
same,complaints of epigastric pain,[6],no complaints of epigastric pain
